The subject of one data set is HK-2. In kind it is cell-based, human. The method, then:
(§1) Kidney cell lines, HK-2 (CRL-2190) and RPTEC/TERT1 (CRL-4031), and neural cell lines, U-87 MG (HTB-14) and SK-N-SH (HTB-11), were obtained from American Type Culture Collection (ATCC). HK-2 cells were cultured in T75 flasks with keratinocyte serum-free medium supplemented with bovine pituitary extract, human epidermal growth factor, and 2.5% FBS. RPTEC/TERT1 cells were cultured in T75 flasks with Dulbecco’s modified Eagle’s medium:F12 supplemented with the ATCC (United States) human telomerase reverse transcriptase immortalized RPTEC growth kit, G418 (0.1 mg/mL final concentration), and 2% FBS. Both U-87 MG and SK-N-SH cells were cultured in minimal essential media supplemented with 10% FBS. The cells were incubated in a humidified atmosphere at 5% CO2 and at 37°C.
(§2) The cytotoxicity of the compounds toward the mammalian cell lines was assessed using the cell viability assay protocols as previously described ([29]). Designated wells in 96-well plates were seeded with HK-2 (5,000 cells), RPTEC/TERT1 (8,000 cells), U-87 MG (7,000 cells), or SK-N-SH (8,000 cells) in 50 µL. Blank wells received an identical volume of only media. After incubating the cells for 24 h, all wells were treated with varying concentrations of the compound and incubated for 48 h. Subsequently, PrestoBlue reagent (Invitrogen, United States) was added to the wells to a final concentration of 10% (vol/vol), and the plate was incubated for an additional 1 h. Fluorescence was measured with a SpectraMax M2 plate reader (Molecular Devices, United States), at excitation and emission wavelengths of 560 and 590 nm, respectively. Values from the blank wells were subtracted from the corresponding wells containing cells. The cell viability relative to the controls with vehicle was calculated and presented as mean ± standard deviation of at least two experiments with five replicates each. CC50 values were obtained using GraphPad Prism (version 10.4.1) by non-linear regression (four-parameter logistic fit).

The test system of the next data set is RPTEC/TERT1. It is filed as cell-based, human. The following applies: 48 h. The procedure: as §1, §2
Data set [1] concerns P. aeruginosa. The method, then:
(§3) The bacterial isolates were acquired from ATCC or the Canadian Ward Surveillance (CANWARD) study ([56]). CANWARD isolates were collected from infected patients admitted to participating medical centers across Canada.
(§4) The antibiotic or compound was serially diluted 2-fold in CAMHB on a 96-well plate and was incubated with equal volumes of bacterial inoculum overnight at 37°C. Wells containing only media were used as negative controls, and wells containing only bacteria were used as positive controls. Antibacterial activity was measured by the MIC, or the lowest concentration of agent required to inhibit visible bacterial growth. Turbidity was confirmed with a Molecular Devices (United States) EMax Plus microplate reader at a wavelength of 590 nm.

The test system of data set [2] is A. baumannii. It is filed as cell-based, Acinetobacter baumannii.
Procedure: Gram-negative and Gram-positive bacterial isolates were grown in lysogeny broth (LB) and brain heart infusion, respectively, overnight in a shaking incubator at 250 rpm and at 37°C.
The antibacterial activity of the antibiotics and compounds was assessed using the broth microdilution assay in accordance with Clinical Laboratory Standards Institute (CLSI) guidelines ([36]), and by following a previously described protocol ([27][–][29], [54], [55]). Bacterial culture grown overnight was diluted in saline to 0.5 McFarland turbidity and was further diluted 1:50 in CAMHB to attain a final concentration of 5 × 10^5 colony-forming units (cfu)/mL for inoculation. The antibiotic or compound was serially diluted 2-fold in CAMHB on a 96-well plate and was incubated with equal volumes of bacterial inoculum overnight at 37°C. Wells containing only media were used as negative controls, and wells containing only bacteria were used as positive controls. Antibacterial activity was measured by the MIC, or the lowest concentration of agent required to inhibit visible bacterial growth. Turbidity was confirmed with a Molecular Devices (United States) EMax Plus microplate reader at a wavelength of 590 nm.
In another data set the test system is E. coli. The note with it: for Resistance phenotype of MDR clinical isolates (antibiotic susceptibility value): Table S4. The procedure:
as §3
The antibiotic or compound was serially diluted 2-fold in CAMHB on a 96-well plate and was incubated with equal volumes of bacterial inoculum overnight at 37°C. Wells containing only media were used as negative controls, and wells containing only bacteria were used as positive controls. Antibacterial activity was measured by the MIC, or the lowest concentration of agent required to inhibit visible bacterial growth.

Data set [3] has as its system P. aeruginosa. As to the kind of experiment: Checkerboard assay (antibiotic potentiation). In kind it is cell-based, Pseudomonas aeruginosa. The following applies: P. aeruginosa PAO1; compound alone. The procedure: The interaction between the compounds and the antibiotics was evaluated using the fractional inhibitory concentration (FIC) index. FIC indices of ≤0.5 is synergistic, 0.5 < × ≤ 4 is additive, whereas >4 is antagonistic ([34]).
Synergy was measured by the FIC index, which is the summation of the individual FICs of the antibiotic and the compound. The FIC is calculated by dividing the MIC of one agent in the presence of another by the MIC of the agent alone. […] The FBS studies were conducted by following a previously published protocol ([29], [50]). The FBS was inactivated by heating at 56°C for 30 min with constant swirling.

Data set [4] concerns A. baumannii. In words: Checkerboard assay (antibiotic potentiation). It is filed as cell-based, Acinetobacter baumannii. The note with it: A. baumannii ATCC 17978; compound alone. The method, then:
The interaction between the compounds and the antibiotics was evaluated using the fractional inhibitory concentration (FIC) index. FIC indices of ≤0.5 is synergistic, 0.5 < × ≤ 4 is additive, whereas >4 is antagonistic ([34]). […] .
as §3
The antibiotic and compounds were serially diluted 2-fold in CAMHB along the x- and y-axis, respectively, on a 96-well plate that was subsequently incubated with equal volumes of bacterial inoculum overnight at 37°C. Wells containing only media were used as negative controls, and wells containing only bacteria were used as positive controls. Synergy was measured by the FIC index, which is the summation of the individual FICs of the antibiotic and the compound. The FIC is calculated by dividing the MIC of one agent in the presence of another by the MIC of the agent alone. Turbidity was confirmed with a Molecular Devices (United States) EMax Plus microplate reader at a wavelength of 590 nm. The FBS studies were conducted by following a previously published protocol ([29], [50]). The FBS was inactivated by heating at 56°C for 30 min with constant swirling.

The next data set relates to E. cloacae. The method, then: as §3, §4
For another data set, the system named is K. pneumoniae. The procedure:
as §3, §4

In brackets after ≈: the same amount, converted by molar mass. Read-outs that look alike come from different tables or passages of the source. Positions of bridges follow the written chain, without caps; N, C: chain ends. Non-standard residues stand in square brackets, D forms with d. Residues, ends and D or L forms follow the SMILES beside them. *: point of attachment. Agp = N=C(N)NC[C@H](N)C(=O)O; X1 = CC[C@H](C)CCCCC(=O)*; Octanoyl = CCCCCCCC(=O)*; Dab = NCC[C@H](N)C(=O)O; Dap = NC[C@H](N)C(=O)O

In the case of `CCCCCCCC(=O)N[C@@H](CNC(=N)N)C(=O)N[C@H](C(=O)N[C@@H](CNC(=N)N)C(=O)N[C@H]1CCNC(=O)[C@H]([C@@H](C)O)NC(=O)[C@H](CNC(=N)N)NC(=O)[C@H](CNC(=N)N)NC(=O)[C@H](CC(C)C)NC(=O)[C@@H](Cc2ccccc2)NC(=O)[C@H](CNC(=N)N)NC1=O)[C@@H](C)O` [Compound 2] (Octanoyl-[Agp]T[Agp][Dab][Agp][dF]L[Agp][Agp]T; lactam 4-C), the “CC50 in HK-2” value in the data set on HK-2 (48 h) turned out to be 26.9 µM. Moreover, the “CC50 in RPTEC/TERT1” value in the data set with RPTEC/TERT1 amounted to 28 µM.

As to `CCCCCCCC(=O)N[C@@H](CCN)C(=O)N[C@H](C(=O)N[C@@H](CCN)C(=O)N[C@H]1CCNC(=O)[C@H]([C@@H](C)O)NC(=O)[C@H](CCN)NC(=O)[C@H](CCN)NC(=O)[C@H]([C@@H](C)O)NC(=O)[C@@H]([C@H](C)O)NC(=O)[C@H](CCN)NC1=O)[C@@H](C)O` [Compound F230] (Octanoyl-[Dab]T[Dab][Dab][Dab][dT]T[Dab][Dab]T; lactam 4-C), the “CC50 in HK-2” value in the data set on HK-2 (48 h) amounted to 263.1 µM. Besides, the “CC50 in RPTEC/TERT1” value in the data set on RPTEC/TERT1 came out at 471.4 µM.

Usually MIC stands for the lowest concentration that inhibits growth of the organism. With `CCCCCCCC(=O)N[C@@H](CN)C(=O)N[C@H](C(=O)N[C@@H](CC(=O)O)C(=O)N[C@H]1CCNC(=O)[C@H]([C@@H](C)O)NC(=O)[C@H](CN)NC(=O)[C@H](CN)NC(=O)[C@H](CC(C)C)NC(=O)[C@@H](Cc2ccccc2)NC(=O)[C@H](CN)NC1=O)[C@@H](C)O` [Compound 3] (Octanoyl-[Dap]TD[Dab][Dap][dF]L[Dap][Dap]T; lactam 4-C), the MIC with P. aeruginosa [1], in the data set with A. baumannii [2] and in the data set on E. coli was greater than 128 µg/mL throughout. For the same molecule, the MICcompound with P. aeruginosa [3] and in the data set with A. baumannii [4] was greater than 128 µg/mL throughout. In addition, the “CC50 in HK-2” value in the data set with HK-2 (48 h) came out at 215.5 µM. The “CC50 in RPTEC/TERT1” value in the data set on RPTEC/TERT1 is 627.2 µM.

For `CCCCCCCC(=O)N[C@@H](CCN)C(=O)N[C@H](C(=O)N[C@@H](CC(=O)O)C(=O)N[C@H]1CCNC(=O)[C@H]([C@@H](C)O)NC(=O)[C@H](CCN)NC(=O)[C@H](CCN)NC(=O)[C@H](CC(C)C)NC(=O)[C@@H](Cc2ccccc2)NC(=O)[C@H](CCN)NC1=O)[C@@H](C)O` [Compound 4] (Octanoyl-[Dab]TD[Dab][Dab][dF]L[Dab][Dab]T; lactam 4-C), the “CC50 in HK-2” value in the data set on HK-2 came out at 236.1 µM; in the data set on HK-2 (48 h), 236.8 µM. The “CC50 in RPTEC/TERT1” value with RPTEC/TERT1 came to 238.8 µM.

Consider `CC[C@H](C)CCCCC(=O)N[C@@H](CCN)C(=O)N[C@H](C(=O)N[C@@H](CCN)C(=O)N[C@H]1CCNC(=O)[C@H]([C@@H](C)O)NC(=O)[C@H](CCN)NC(=O)[C@H](CCN)NC(=O)[C@H](CC(C)C)NC(=O)[C@@H](CC(C)C)NC(=O)[C@H](CCN)NC1=O)[C@@H](C)O` [Colistin, colistin] (X1-[Dab]T[Dab][Dab][Dab][dL]L[Dab][Dab]T; lactam 4-C (inferred); N-terminus assumed), for which the MIC in the data set with E. cloacae (E. cloacae 117029) was 0.25 µg/mL (≈ 0.214 µM); against E. cloacae (E. cloacae 121887, colistin-resistant), greater than 16 µg/mL; against K. pneumoniae (K. pneumoniae 113250, colistin-resistant), 256 µg/mL (≈ 219 µM); against K. pneumoniae (K. pneumoniae 116381) it was 1 µg/mL (≈ 0.855 µM); in the data set with P. aeruginosa [1] (P. aeruginosa 259-96916, clinical isolate), 0.5 µg/mL (≈ 0.428 µM); against P. aeruginosa [1] (P. aeruginosa 262-101856, clinical isolate), 2 µg/mL (≈ 1.71 µM). Also, the MIC against P. aeruginosa [1] (P. aeruginosa 264-104354, clinical isolate) worked out at 1 µg/mL (≈ 0.855 µM); against P. aeruginosa [1] (P. aeruginosa 101243, colistin-resistant), 1024 µg/mL (≈ 876 µM); in the data set with P. aeruginosa [1] (P. aeruginosa 114228, colistin-resistant), 4 µg/mL (≈ 3.42 µM); in the data set on A. baumannii [2] (A. baumannii 92247, colistin-resistant), 4 µg/mL (≈ 3.42 µM); against A. baumannii [2] (A. baumannii 110193), 0.5 µg/mL (≈ 0.428 µM); in the data set on A. baumannii [2] (A. baumannii AB027), 0.25 µg/mL (≈ 0.214 µM). The MIC was 0.25 µg/mL (≈ 0.214 µM) with A. baumannii [2] (A. baumannii AB031); 4 µg/mL (≈ 3.42 µM) in the data set on E. coli (E. coli 94393, colistin-resistant); 16 µg/mL (≈ 13.7 µM) with E. coli (E. coli 94474, colistin-resistant); 0.125 µg/mL (≈ 0.107 µM) with E. coli (E. coli 107115); no more than 0.25 µg/mL against E. coli (E. coli 131629).

For the molecule `CN(C)c1cc(CNCC(C)(C)C)c(O)c2c1C[C@H]1C[C@H]3[C@H](N(C)C)C(O)=C(C(N)=O)C(=O)[C@@]3(O)C(O)=C1C2=O` [OMC, omadacyline], the “Resistance phenotype of MDR clinical isolates (antibiotic susceptibility value)” value in the data set on E. cloacae (E. cloacae 117029, Table S4) is listed as 4; with E. coli (E. coli 94393 (mcr-1 +)), 4; with E. coli (E. coli 94474 (mcr-1 +)), 16; in the data set on E. coli (E. coli 107115), 4. Moreover, the “Resistance phenotype (antibiotic susceptibility profile)” value in the data set on K. pneumoniae (K. pneumoniae 113250) stood at 2; with K. pneumoniae (K. pneumoniae 116381), 4; in the data set on P. aeruginosa [1] (P. aeruginosa 259-96916) it was 64; in the data set with P. aeruginosa [1] (P. aeruginosa 262-101856), 64; with P. aeruginosa [1] (P. aeruginosa 264-104354) it was 64; in the data set on P. aeruginosa [1] (P. aeruginosa 114228) it was 128. Moreover, the “Resistance phenotype (antibiotic susceptibility profile)” value is 1 in the data set with A. baumannii [2] (A. baumannii AB027) and 2 in the data set on A. baumannii [2] (A. baumannii AB031).

The values above are taken from paper PMC12587545, “Noncytotoxic polymyxin derivatives enhance antibiotic action against multidrug-resistant Gram-negative bacteria” (Antimicrobial Agents and Chemotherapy, 2025).
